Data on 4 compounds can be found in PMC6691826, “1D NMR WaterLOGSY as an efficient method for fragment-based lead discovery” (Journal of Enzyme Inhibition and Medicinal Chemistry, 2019).

Test [1] has as its target T1, glycogen phosphorylase (GP) (Oryctolagus cuniculus, UniProt P00489).
T1 sequence (P00489 1-843): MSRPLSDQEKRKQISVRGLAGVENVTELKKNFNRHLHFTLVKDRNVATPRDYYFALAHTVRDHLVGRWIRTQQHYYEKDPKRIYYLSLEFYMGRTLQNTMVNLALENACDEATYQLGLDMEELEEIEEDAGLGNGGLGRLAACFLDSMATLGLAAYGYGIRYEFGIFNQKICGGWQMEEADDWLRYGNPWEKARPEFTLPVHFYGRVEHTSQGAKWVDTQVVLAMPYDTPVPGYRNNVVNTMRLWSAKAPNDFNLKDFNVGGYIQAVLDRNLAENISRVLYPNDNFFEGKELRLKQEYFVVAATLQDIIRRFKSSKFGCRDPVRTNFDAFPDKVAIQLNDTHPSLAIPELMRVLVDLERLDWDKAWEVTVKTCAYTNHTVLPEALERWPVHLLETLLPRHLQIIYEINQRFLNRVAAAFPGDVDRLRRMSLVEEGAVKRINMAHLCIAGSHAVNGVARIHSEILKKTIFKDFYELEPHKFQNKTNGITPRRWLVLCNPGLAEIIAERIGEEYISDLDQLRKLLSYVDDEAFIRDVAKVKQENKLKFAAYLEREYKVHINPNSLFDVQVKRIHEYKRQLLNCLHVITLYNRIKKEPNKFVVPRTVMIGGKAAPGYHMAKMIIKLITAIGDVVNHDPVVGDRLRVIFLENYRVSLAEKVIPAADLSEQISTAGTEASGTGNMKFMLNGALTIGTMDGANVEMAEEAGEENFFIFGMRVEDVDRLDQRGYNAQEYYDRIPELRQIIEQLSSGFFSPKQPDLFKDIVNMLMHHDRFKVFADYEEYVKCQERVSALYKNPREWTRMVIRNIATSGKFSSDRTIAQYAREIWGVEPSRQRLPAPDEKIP
In words: Dissociation constant of fragment bound to GP. In kind it is binding, rabbit. The conditions noted are these: unpublished data.

Test [2] concerns the target T2, N-terminal domain of HSP90 (Homo sapiens, UniProt P07900).
T2 construct: the N-terminal domain (9–236) of HSP-90 were produced and purified; made in house; host or cells: Escherichia coli
Kind of test: WaterLOGSY NMR epitope mapping, HSP90. It is filed as binding. The conditions noted are these: proton H1, bound to HSP90, 1.5 s mixing time, normalised. The protocol:
(§1) NMR samples for STD experiments consisted of 400 µM fragment in 0.5% DMSO-d6 and 10% D2O (v/v) together with a protein concentration of 20 µM for peroxiredoxin and HSP90, 10 µM for Bcl-xL, 15 µM for Mcl-1, 2 µM for glycogen phosphorylase, and 5 µM for HSA.
(§2) Standard 1 D, STD, and WaterLOGSY NMR spectra were acquired at 20 °C with an Agilent Inova 600 MHz NMR spectrometer, equipped with a room temperature 5 mm triple-resonance inverse probe with z-axis field gradient and a Bruker 600 MHz NMR spectrometer, equipped with a Z-gradient cryoprobe.
(§3) WaterLOGSY mixing time was 1.5 s, and additional experiments were performed with 0.75 s and 0.25 s mixing time. Both STD and WaterLOGSY spectra were recorded for each sample. WaterLOGSY spectra in the absence of protein receptor were recorded with 400 µM compound. All the NMR experiments were performed at 293 K with excitation sculpting to suppress peaks from water. […] The STD factors were calculated according to the following equation: R=(ISTD/I1D)×100) were ISTD and I1D are the intensity of proton resonances of the STD and the 1 D proton spectra, respectively. […]
(§4) This is due to the WaterLOGSY mechanism that involves magnetisation transfer from bulk water. Therefore, we propose the following protocol to quantitatively evaluate the WaterLOGSY signals of the protons of a compound bound to its receptor. […]

Test [3] addresses N-terminal domain (9–236) of HSP90. Details: method as in PMID 20718493. The settings on record: bound to HSP90; cited from earlier work.
Test [4] concerns the target T3, human serum albumin (HSA) (Homo sapiens, UniProt P02768).
T3 construct: purchased Sigma A3782
Kind of test: Dissociation constant of fragment bound to HSA. It is filed as binding.

In test [5] the target is T3, human serum albumin (HSA). Kind of test: WaterLOGSY NMR epitope mapping, HSA. It is filed as binding. The settings on record: all protons, bound to HSA, 1.5 s mixing time, normalised. The procedure:
as §1, §2, §3, §4

Test [6] addresses Bcl-xL. Also on record: method as in PMID 16420051. The conditions noted are these: bound to Bcl-xL; cited from earlier work.

T3 sequence (P02768 25-609): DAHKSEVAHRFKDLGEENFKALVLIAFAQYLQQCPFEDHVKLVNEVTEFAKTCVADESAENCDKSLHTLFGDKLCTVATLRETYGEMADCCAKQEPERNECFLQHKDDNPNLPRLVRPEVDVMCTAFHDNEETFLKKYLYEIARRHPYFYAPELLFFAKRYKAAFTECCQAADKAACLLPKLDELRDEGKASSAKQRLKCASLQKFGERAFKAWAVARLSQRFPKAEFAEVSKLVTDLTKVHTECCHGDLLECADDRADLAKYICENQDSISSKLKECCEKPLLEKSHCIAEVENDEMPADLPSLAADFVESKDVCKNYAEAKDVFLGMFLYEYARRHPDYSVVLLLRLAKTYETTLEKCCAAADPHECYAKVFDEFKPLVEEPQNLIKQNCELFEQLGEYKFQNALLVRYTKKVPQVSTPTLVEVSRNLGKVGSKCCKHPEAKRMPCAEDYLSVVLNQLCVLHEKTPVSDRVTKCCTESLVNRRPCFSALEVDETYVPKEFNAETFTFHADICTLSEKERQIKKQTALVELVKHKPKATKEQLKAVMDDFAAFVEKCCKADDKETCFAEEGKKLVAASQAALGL

The Kd is a measure of binding affinity in units of concentration. Take `O=C(O)c1ccc(Oc2ccccc2)cc1` [Compound 6, 4-phenoxybenzoic acid]: the Kd in test [1] is more than 1000 µM. In test [2], `CCN(CC)C(=O)c1ccc(O)c(OC)c1` [Compound 4, N,N-diethylvanillamide] registered a WLOGSY factor of 10%. Further, in test [3], the dissociation constant (Kd) is 790 µM. In turn, `Cc1ccc(O)c(O)c1` [Compound 1, 4-methylcatechol] displayed an equilibrium dissociation constant (Kd) in test [4] of more than 1000 µM. The WLOGSY factor in test [5] is on record as 100%.

In the case of `O=C(O)c1ccc(-c2ccc(F)cc2)cc1` [Compound 5, 4′-fluoro-[1,1′-biphenyl]-4-carboxylic acid], the dissociation constant (Kd) in test [6] was 300 µM.
